Measured values published in patent US20040166509A1, “Detecting hormonally active compounds” (priority 2002, published 2004).

Tested on: liver cDNAs of adult male LMB
Test: LMB gene arrays of SSH-derived cDNAs: liver of fish treated with androgens
Assay type: in vivo, largemouth bass (LMB)
Conditions: DHT 62.5 μg/g, 11-KT 20 μg/g vs DMSO
Description: For each cDNA clone, the general background of each membrane was subtracted from the average value of the duplicate spots on the membrane. The values were then normalized to the average value of seven cDNA clones specific to ribosomal genes and the fold change calculated by dividing the mean of each treatment by the mean of the control. Those genes which changed by 2-fold or more were graphed. Significant differences (p<0.05) were determined by ANOVA and secondary testing was done by using […].

`C[C@]12CC(=O)[C@H]3[C@@H](CCC4=CC(=O)CC[C@@]43C)[C@@H]1CC[C@@H]2O` [11-KT, 11-ketotestosterone] was tested, and the “24-1 (LOC L1) change” value was “down”, the “ALPHA TUBULIN (LOC M2) change” value was “down” and the “COMPLEMENT C3 (LOC L3) change” value was “down”. The “CYSTATIN (LOC O3) change” value was “down-regulated”, the “ER GAMMA 5′ 2F (LOC L14) change” value was “down” and the “EST SEASONAL 9 (LOC D13) change” value was “up (Those genes which changed by 2-fold or more were graphed)”. For the same molecule, the “EST SEASONAL 51 (LOC K11) change” value was “down”, the “EST SEASONAL 55 (LOC M4) change” value was “down” and the “EST SEASONAL 62 (LOC B14) change” value was “up (Those genes which changed by 2-fold or more were graphed)”. The “EST SEASONAL 64 (LOC H7) change” value was “up (Those genes which changed by 2-fold or more were graphed)”, the “EST SEASONAL 72 (LOC K12) change” value was “down” and the “EST SEASONAL F21 (LOC O13) change” value was “down”. The “ESTP4_H07 (LOC K13) change” value was “up (Those genes which changed by 2-fold or more were graphed)”, the “GP3 11C (LOC K1) change” value was “down” and the “LDL RC (LOC J10) change” value was “down”. The “LMB24-1 (Unknown) differentially expressed by androgens” value was “dn-reg DHT;”, the “LMB151 vitellogenin receptor differentially expressed by” value was “Dn-reg” and the “LMB CYSTATIN-PREC (Cystatin precursor) differentially expressed by” value was “Dn-reg 11-KT”. The “LMB EST--SEASONAL_64 differentially expressed by” value was “up-reg DHT;”, the “LMB EST--SEASONAL_72 differentially expressed by” value was “Dn-reg DHT;” and the “LMB EST--SEASONAL_F17 differentially expressed by” value was “Dn-reg 11-KT”. The “LMB EST-SEASONAL_55 differentially expressed by” value was “Dn-reg 11-KT;”, the “LMB EST-SEASONALf17 differentially expressed by” value was “down by 11KT” and the “LMB RIKEN 1110001M01 differentially expressed by” value was “up by 11KT;”. The “LMB_ALPHA-TUBULIN (alpha tubulin) differentially expressed by” value was “Dn-reg 11-kt;”, the “LMB_COMPLEMENT-C3 (Complement C3 precursor) differentially expressed by” value was “Dn-reg DHT;” and the “LMB_ER-GAMMA ESTROGEN RECEPTOR GAMMA differentially expressed by (11-KT)” value was “Dn-reg 11-KT;”. The “LMB_EST-SEASONAL_09 differentially expressed by” value was “up-reg DHT;”, the “LMB_EST-SEASONAL_11 differentially expressed by” value was “dn-reg 11-KT” and the “LMB_EST-SEASONAL_51 differentially expressed by” value was “dn 11-KT;”. The “LMB_ESTDHT64 differentially expressed by” value was “up by 11KT”, the “LMB_ESTDHT_62 differentially expressed by” value was “up-reg DHT;” and the “LMB_LDL RC (LDL receptor) differentially expressed by” value was “Dn-reg DHT;”. For the same molecule, the “LMB_RXR INTERACT PROT (Retinoid X receptor interacting protein) differentially expressed by” value was “Dn-reg 11-KT;”, the “LMB_SOL-CAR-25A#5 (solute carrier family 25 alpha member 5) differentially expressed by” value was “up-reg DHT;” and the “LMB_SSAT (SSAT) differentially expressed by” value was “up-reg DHT;”. The “LMB_WARM-WATER ACC PROTEIN (Warm water acclimation-related protein) differentially expressed by” value was “up-reg 11-KT”, the “LMB_ZPC1 (ZPC1) differentially expressed by” value was “up-reg DHT;” and the “LMB_ZPC4 (ZPC4) differentially expressed by” value was “up-reg DHT;”. For the same molecule, the “PTTP (LOC O10) change” value was “up-”, the “RETINOL DEHYDROGENASE (LOC M11) change” value was “up (Those genes which changed by 2-fold or more were graphed)” and the “RIKEN 1110001M01 (LOC O11) change” value was “up (Those genes which changed by 2-fold or more were graphed)”. For the same molecule, the “RXR INTERACTING PROT (LOC L11) change” value was “down”, the “SOLUTE CARRIER (LOC B13) change” value was “up (Those genes which changed by 2-fold or more were graphed)” and the “SSAT (LOC C13) change” value was “up (Those genes which changed by 2-fold or more were graphed)”. The “TFIID (change to liver regeration related protein) (LOC M12) change” value was “down”, the “VTG PRECURSOR (LOC D14) change” value was “up (Those genes which changed by 2-fold or more were graphed)” and the “VTG RC (LOC M14) change” value was “down”. For the same molecule, the “ZPC1 (LOC H14) change” value was “up (Those genes which changed by 2-fold or more were graphed)”, the “ZPC4 (LOC I14) change” value was “up (Those genes which changed by 2-fold or more were graphed)” and the “warm water acclim (LOC E14) change” value was “up (Those genes which changed by 2-fold or more were graphed)”.
